# According to US8648105B2, “Diarylthiohydantoin compounds” (The Regents of the University of California, priority 2006, dated 2014):
# Key:
# Format in all cases: cell-based
# Set-up in all cases: Fold induction, AR response reporter
# AR [1] = target: T1, AR (Homo sapiens, UniProt P10275); conditions: for rank by relative PSA level, most active to least active: 500 nM; for PSA levels of LN-AR cells: 100, 200, 500, and 1000 nM, FIG. 20
# T1 sequence (P10275 1-920): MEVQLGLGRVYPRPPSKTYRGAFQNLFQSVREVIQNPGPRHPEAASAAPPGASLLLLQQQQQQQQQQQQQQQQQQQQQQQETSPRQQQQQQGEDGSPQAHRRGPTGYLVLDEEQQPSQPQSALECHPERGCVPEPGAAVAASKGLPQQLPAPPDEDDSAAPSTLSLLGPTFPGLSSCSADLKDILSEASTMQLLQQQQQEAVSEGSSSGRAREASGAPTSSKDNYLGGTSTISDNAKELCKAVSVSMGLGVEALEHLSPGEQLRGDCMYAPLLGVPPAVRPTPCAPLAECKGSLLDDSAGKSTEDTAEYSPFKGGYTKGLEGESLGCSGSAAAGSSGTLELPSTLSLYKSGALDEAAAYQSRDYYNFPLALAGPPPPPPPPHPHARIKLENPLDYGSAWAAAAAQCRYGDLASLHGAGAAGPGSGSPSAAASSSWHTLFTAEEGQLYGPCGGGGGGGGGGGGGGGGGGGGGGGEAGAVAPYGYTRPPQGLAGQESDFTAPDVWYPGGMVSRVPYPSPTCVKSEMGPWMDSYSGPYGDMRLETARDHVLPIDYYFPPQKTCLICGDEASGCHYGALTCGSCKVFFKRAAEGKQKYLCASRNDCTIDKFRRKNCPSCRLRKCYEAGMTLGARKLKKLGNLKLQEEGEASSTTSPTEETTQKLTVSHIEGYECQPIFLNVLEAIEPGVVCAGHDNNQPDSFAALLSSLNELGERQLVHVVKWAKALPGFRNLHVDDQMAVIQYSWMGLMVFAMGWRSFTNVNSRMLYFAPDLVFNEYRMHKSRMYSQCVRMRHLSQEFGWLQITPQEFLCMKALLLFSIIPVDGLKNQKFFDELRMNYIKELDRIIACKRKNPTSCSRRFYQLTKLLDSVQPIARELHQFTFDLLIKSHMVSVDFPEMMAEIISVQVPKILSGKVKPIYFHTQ
# Protocol: It is well established that PSA levels are indicators of AR activities in prostate cancer. […] The LNCaP-AR cells are a line of lymph node carcinoma of prostate cells transduced with a plasmid that makes express androgen receptors. […] After four days incubation, secreted PSA levels were assayed using PSA ELISA kits (American Qualex, San Clemente, Calif.)
# AR [2] = target: T1, AR; conditions: for luciferase activity in LNCaP-AR cells: 125 nM to 1000 nM; for luciferase activity in LNCaP-AR cells / rank by relative luciferase activity, most active to least active: FIG. 3; for rank by relative luciferase activity, most active to least active: 500 nM; for inhibitory activity on AR response reporter: hormone refractory LNCaP-AR
# Protocol: The compounds were subjected to tests using an artificial AR response reporter system in a hormone refractory prostate cancer cell line. […] After two days of incubation, reporter activities were assayed.
# AR [3] = target: T1, AR; conditions: LN-AR, absence of R1881
# Protocol: Activities of AR response reporter were measured.
# AR [4] = target: T1, AR; conditions: AR over expressed LNCaP, absence of R1881
# [5] = LN/AR cell line, 125 nmol to 1000 nmol
smiles,measurement,setting,value
"CS(=O)(=O)N1CCN(c2ccc(N3C(=S)N(c4ccc(C#N)c(C(F)(F)F)c4)C(=O)C34CCC4)cc2)CC1 [NC50, 4-{5-[4-(4-methanesulfonylpiperazin-1-yl)-phenyl]-8-oxo-6-thioxo-5,7-diazaspiro[3.4]oct-7-yl}-2-trifluoromethylbenzonitrile]",decrease in PSA level of LNCaP-AR cells (comparison),AR [1],greater decrease in PSA level of LNCaP-AR cells than NC45 and NC49
same,"rank by relative PSA level, most active to least active",AR [1],NC50>NC48>NC7>NC43>NC44>NC49>NC50>NC45>bicalutamide
N#Cc1ccc(N2C(=O)C3(CCC3)N(c3ccc(O)cc3F)C2=S)cc1C(F)(F)F [NC69],luciferase activity in LNCaP-AR cells,AR [2],acted to reduce luciferase activity
same,"rank by relative luciferase activity, most active to least active",AR [2],NC67>NC68>NC66>NC69>NC77=NC53>bicalutamide
"CN1C(=O)N(c2ccc(C#N)c(C(F)(F)F)c2)C(=O)C12CCCC2 [NC27, 4-(1-methyl-2,4-dioxo-1,3-diaza-spiro[4.4]non-3-yl)-2-trifluoromethylbenzonitrile, reference compound]",inhibitory activity on AR response reporter,AR [2],no inhibitory activities
same,agonistic activity on AR response reporter,AR [3],strongly activated AR
"N#Cc1ccc(N2C(=O)C3(CCC3)N(c3ccc(CCC(N)=O)cc3)C2=S)cc1C(F)(F)F [NC43, 3-{4-[7-(4-cyano-3-trifluoromethylphenyl)-8-oxo-6-thioxo-5,7-diaza-spiro[3.4]oct-5-yl]-phenyl}-propionamide]",decrease in PSA level of LNCaP-AR cells (comparison),AR [1],greater decrease in PSA level of LNCaP-AR cells than NC45 and NC49
same,"rank by relative PSA level, most active to least active",AR [1],NC50>NC48>NC7>NC43>NC44>NC49>NC50>NC45>bicalutamide
"CNC(=O)c1ccc(N2C(=S)N(c3ccc(C#N)c(C(F)(F)F)c3)C(=O)C23CCCC3)cc1F [NC55, 4-(3-(4-Cyano-3-(trifluoromethyl)phenyl)-4-oxo-2-thioxo-1,3-diazaspiro[4.4]nonan-1-yl)-2-fluoro-N-methylbenzamide]",PSA levels of LN-AR cells,AR [1],PSA levels of LN-AR cells decreased
"CCNC(=S)N=C1N(c2ccc(C#N)c(C(F)(F)F)c2)C(=S)N(c2ccc(C)cc2)C1(C)C [NC34, 1-[3-(4-cyano-3-trifluoromethyl-phenyl)-5,5-dimethyl-2-thioxo-1-p-tolyl-imidazolidin-4-ylidene]-3-ethyl-thiourea]",agonistic activity on AR response reporter,AR [3],no agonistic activity
same,agonistic activity on secreted PSA,AR [4],no agonistic activities
"CC1(C)C(=O)N(c2ccc(C#N)c(C(F)(F)F)c2)C(=S)N1CCCCO [Example 29, 4-[3-(4-hydroxybutyl)-4,4-dimethyl-5-oxo-2-thioxoimidazolidin-1-yl]-2-trifluoromethylbenzonitrile, reference compound]",IC50 (nM) Reporter,"AR [2]; LNCaP-AR, 100 pM R1881, two days, No = did not inhibit AR response reporter",No (*)
same,agonistic activity on AR response reporter,AR [3],strongly activated AR
same,agonistic activity on secreted PSA,AR [4],stimulated PSA expression
"N#Cc1ccc(N2C(=O)C3(CCCC3)NC2=S)cc1C(F)(F)F [NC28, 4-(4-oxo-2-thioxo-1,3-diazaspiro[4.4]non-3-yl)-2-trifluoromethylbenzonitrile, reference compound]",inhibitory activity on AR response reporter,AR [2],no inhibitory activities
same,agonistic activity on AR response reporter,AR [3],strongly activated AR
"N#CCCCc1ccc(N2C(=S)N(c3ccc(C#N)c(C(F)(F)F)c3)C(=O)C23CCC3)cc1 [NC57, 4-(5-(4-(3-Cyanopropyl)phenyl)-8-oxo-6-thioxo-5,7-diazaspiro[3.4]octan-7-yl)-2-(trifluoromethyl)benzonitrile]",PSA levels of LN-AR cells,AR [1],PSA levels of LN-AR cells decreased
CS(=O)(=O)c1ccc(N2C(=S)N(c3ccc(C#N)c(C(F)(F)F)c3)C(=O)C23CCC3)cc1 [NC66],luciferase activity in LNCaP-AR cells,AR [2],acted to reduce luciferase activity
same,"rank by relative luciferase activity, most active to least active",AR [2],NC67>NC68>NC66>NC69>NC77=NC53>bicalutamide
"Cc1ccc(N2C(=S)N(c3ccc(C#N)c(C(F)(F)F)c3)C(=NC(=S)Nc3ccc(C#N)c(C(F)(F)F)c3)C23CCC3)cc1 [NC36, 1-(4-Cyano-3-trifluoromethyl-phenyl)-3-[7-(4-cyano-3-trifluoromethyl-phenyl)-6-thioxo-5-p-tolyl-5,7-diaza-spiro[3.4]oct-8-ylidene]-thiourea]",agonistic activity on AR response reporter,AR [3],no agonistic activity
same,agonistic activity on secreted PSA,AR [4],no agonistic activities
"CNC(=O)CCc1ccc(N2C(=S)N(c3ccc(C#N)c(C(F)(F)F)c3)C(=O)C23CCC3)cc1 [NC44, 3-{4-[7-(4-Cyano-3-trifluoromethylphenyl)-8-oxo-6-thioxo-5,7-diaza-spiro[3.4]oct-5-yl]-phenyl}-N-methyl-propionamide]",decrease in PSA level of LNCaP-AR cells (comparison),AR [1],greater decrease in PSA level of LNCaP-AR cells than NC45 and NC49
same,"rank by relative PSA level, most active to least active",AR [1],NC50>NC48>NC7>NC43>NC44>NC49>NC50>NC45>bicalutamide
"CN(C)C(=O)CCCc1ccc(N2C(=S)N(c3ccc(C#N)c(C(F)(F)F)c3)C(=O)C23CCC3)cc1 [NC56, 4-(4-(7-(4-Cyano-3-(trifluoromethyl)phenyl)-8-oxo-6-thioxo-5,7-diazaspiro[3.4]octan-5-yl)phenyl)-N,N-dimethylbutanamide]",PSA levels of LN-AR cells,AR [1],PSA levels of LN-AR cells decreased
"CN1C(=S)N(c2ccc(C#N)c(C(F)(F)F)c2)C(=O)C12CCCC2 [NC26, 4-(1-methyl-4-oxo-2-thioxo-1,3-diazaspiro[4.4]non-3-yl)-2-trifluoromethylbenzonitrile, reference compound]",inhibitory activity on AR response reporter,AR [2],no inhibitory activities
same,agonistic activity on AR response reporter,AR [3],strongly activated AR
same,agonistic activity on secreted PSA,AR [4],stimulated PSA expression
COC(=O)c1ccc(N2C(=S)N(c3ccc(C#N)c(C(F)(F)F)c3)C(=O)C2(C)C)cc1 [NC67],luciferase activity in LNCaP-AR cells,AR [2],acted to reduce luciferase activity
same,"rank by relative luciferase activity, most active to least active",AR [2],NC67>NC68>NC66>NC69>NC77=NC53>bicalutamide
CNC(=O)c1ccc(N2C(=S)N(c3ccc(C#N)c(C(F)(F)F)c3)C(=O)C2(C)C)cc1 [NC68],luciferase activity in LNCaP-AR cells,AR [2],acted to reduce luciferase activity
same,"rank by relative luciferase activity, most active to least active",AR [2],NC67>NC68>NC66>NC69>NC77=NC53>bicalutamide
same,luciferase activity (comparison),AR [2]; [5],less than the luciferase activity upon exposure to NC103
"Cc1ccc(N2C(=S)N(c3ccc(C#N)c(C(F)(F)F)c3)C(=NC(=S)Nc3ccccc3)C23CCC3)cc1 [NC35, 1-[7-(4-cyano-3-trifluoromethyl-phenyl)-6-thioxo-5-p-tolyl-5,7-diaza-spiro[3.4]oct-8-ylidene]-3-phenyl-thiourea]",agonistic activity on AR response reporter,AR [3],no agonistic activity
same,agonistic activity on secreted PSA,AR [4],no agonistic activities
"N#Cc1ccc(N2C(=O)C3(CCC3)N(c3ccc(N4CCNCC4)cc3)C2=S)cc1C(F)(F)F [NC49, 4-[8-Oxo-5-(4-piperazin-1-yl-phenyl)-6-thioxo-5,7-diazaspiro[3.4]oct-7-yl]-2-trifluoromethylbenzonitrile]",decrease in PSA level of LNCaP-AR cells (comparison),AR [1],greater decrease in PSA level than bicalutamide
same,"rank by relative PSA level, most active to least active",AR [1],NC50>NC48>NC7>NC43>NC44>NC49>NC50>NC45>bicalutamide
"N#Cc1ccc(N2C(=O)C3(CCC3)N(c3ccc(CCCC(N)=O)cc3)C2=S)cc1C(F)(F)F [NC47, 4-{4-[7-(4-Cyano-3-trifluoromethylphenyl)-8-oxo-6-thioxo-5,7-diaza-spiro[3.4]oct-5-yl]-phenyl}-butyramide]",PSA level (comparison),AR [1]; [5],less than the PSA level upon exposure to NC42 and NC46
"N#Cc1ccc(N2C(=O)C3(CCC3)N(c3ccc(CCC(=O)NCCO)cc3)C2=S)cc1C(F)(F)F [NC45, 3-{4-[7-(4-cyano-3-trifluoromethylphenyl)-8-oxo-6-thioxo-5,7-diaza-spiro[3.4]oct-5-yl]-phenyl}-N-(2-hydroxyethyl)-propionamide]",decrease in PSA level of LNCaP-AR cells (comparison),AR [1],greater decrease in PSA level than bicalutamide
same,"rank by relative PSA level, most active to least active",AR [1],NC50>NC48>NC7>NC43>NC44>NC49>NC50>NC45>bicalutamide
